Test results: article PMC3834340, “X-Ray Crystal Structure of the Ancestral 3-Ketosteroid Receptor–Progesterone–Mifepristone Complex Shows Mifepristone Bound at the Coactivator Binding Interface” (PLoS ONE, 2013)

Experiments:
[1] = test system: T1, ancestral 3-ketosteroid receptor (ancSR2); assay: X-ray crystal structure at […] Å; the EC50 is from a Gal4-DBD–LBD luciferase reporter assay in CHO-K1 cells; format: cell-based, synthetic construct
T1 construct: ancSR2 LBD, residues 2 through 248 modeled

[2] = test system: T1, ancestral 3-ketosteroid receptor (ancSR2); assay: X-ray crystal structure at […] Å (ternary complex, surface sites); the EC50 is from a separate CHO-K1 luciferase reporter assay and is not assigned to these sites; format: cell-based, synthetic construct

EC50 [2] [nM]	Structure (SMILES)	EC50 [1] [nM]
	CC(=O)[C@H]1CC[C@H]2[C@@H]3CCC4=CC(=O)CC[C@]4(C)[C@H]3CC[C@]12C [progesterone]	0.078 ± 0.0017
56 ± 1.2	CC#C[C@]1(O)CC[C@H]2[C@@H]3CCC4=CC(=O)CCC4=C3[C@@H](c3ccc(N(C)C)cc3)C[C@@]21C [mifepristone]	
